Experimental data as given in PubChem BioAssay (NCI).
“And” between values parts separate entries of the source, which are not always exact repeats. Equal entries are not always repeated.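 96-well plates; 48 h exposure; 5 concentrations. Endpoints by linear interpolation between flanking doses. Not reached: highest tested concentration assigned. The concentration for 50% growth inhibition is given as GI50. TGI marks complete inhibition of growth.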

Tests used:
Experiment in all cases: DTP human tumour cell line panel, 48 h
COLO 205 colon = test system: COLO 205 colon
HCC-2998 colon = test system: HCC-2998 colon
HT29 colon = test system: HT29 colon
MALME-3M melanoma = test system: MALME-3M melanoma
MCF7 breast = test system: MCF7 breast
MDA-MB-231 breast = test system: MDA-MB-231 breast
NCI-H522 lung = test system: NCI-H522 lung
SK-MEL-5 melanoma = test system: SK-MEL-5 melanoma
SN12C renal = test system: SN12C renal
UO-31 renal = test system: UO-31 renal

SMILES | GI50 (COLO 205 colon) | TGI (COLO 205 colon) | GI50 (HCC-2998 colon) | TGI (HCC-2998 colon) | GI50 (HT29 colon) | TGI (HT29 colon) | GI50 (MALME-3M melanoma) | TGI (MALME-3M melanoma) | GI50 (MCF7 breast) | TGI (MCF7 breast) | GI50 (MDA-MB-231 breast) | TGI (MDA-MB-231 breast) | GI50 (NCI-H522 lung) | TGI (NCI-H522 lung) | GI50 (SK-MEL-5 melanoma) | TGI (SK-MEL-5 melanoma) | GI50 (SN12C renal) | TGI (SN12C renal) | GI50 (UO-31 renal) | TGI (UO-31 renal)
N#C/C(=C\c1ccc[nH]1)c1cc(-c2ccc(Cl)cc2)nn1-c1ccccc1 | 3.16 µM | 8.17 µM | 3.5 µM | 12.4 µM | 3.31 µM | 13 µM | 3.05 µM | 17.2 µM | 0.449 µM | 19.7 µM | 5.78 µM | 33 µM | 5.19 µM | 29.4 µM | 6.47 µM | 19.4 µM | 5.87 µM | > 48 µM | 3.82 µM | 31 µM
COC(=O)Nc1nc2ccc(C(=O)c3cccc(I)c3)cc2[nH]1 | 0.0472 µM | 4.55 µM | 0.208 µM | 30.6 µM | 0.0375 µM | 26 µM | 0.274 µM | 24.1 µM | 0.0369 µM | 15.9 µM | 0.166 µM | 5.52 µM | 0.0778 µM | 9.59 µM | 0.068 µM | 2.31 µM | 0.125 µM | > 33.3 µM | 0.316 µM | 17.2 µM
Nc1ccc(C#Cc2ccccc2C#CCCCCO)cc1 | 16.1 µM | 30.1 µM | 16.6 µM | 31.3 µM | 13.3 µM | 26.1 µM | 24.8 µM | 43.9 µM | 23.5 µM | 52.2 µM | 14 µM | 27.5 µM | 15.7 µM | 29.5 µM | 19.8 µM | 38.6 µM | 6.26 µM | 20 µM | 16.6 µM | 30.5 µM
Cc1ccsc1C(NC(=O)c1ccccc1)c1cc(Cl)c2cccnc2c1O (centres undefined) | 0.318 µM | 10.6 µM | 0.775 µM | 16.2 µM | 0.548 µM | 20.7 µM | 1.1 µM | 13.9 µM | 0.379 µM | 16.2 µM | 0.675 µM | 18.7 µM | 0.271 µM | 2.11 µM | 0.583 µM | 5.14 µM | 0.971 µM | 14.7 µM | 0.334 µM | 2.51 µM
[N-]=[N+]=C(C(=O)CN1CCCC1=O)S(=O)(=O)c1ccccc1 |  | > 100 µM |  | > 100 µM |  | > 100 µM |  | > 100 µM |  | > 100 µM |  | > 100 µM |  | > 100 µM |  | > 100 µM |  | > 100 µM |  | > 100 µM
O=C1C2=C(C(=O)c3ccccc31)C(O)(S(=O)(=O)O)C(O)(S(=O)(=O)O)C1N=CC=CC21 (centres undefined) | 7.08 µM and 4.11 µM | 29.9 µM and 61.5 µM | 4.63 µM and 3.93 µM | 60.4 µM and 17.5 µM | 5.84 µM and 4.51 µM | > 100 µM and 20.8 µM | 10.3 µM and 14.8 µM | 36.7 µM and 39 µM | 4.9 µM and 3.26 µM | 29.1 µM and 27.2 µM | 14.5 µM and 4.51 µM | > 100 µM and 46.6 µM | 4.8 µM and 2.13 µM | 39.6 µM and 5.71 µM | 3.96 µM and 3.63 µM | 16.3 µM and 14.5 µM | 4.84 µM and 3.25 µM | > 100 µM and 14.1 µM | 2.46 µM and 2.19 µM | 27 µM and 13 µM
Cc1cc(I)cc(CN(C)CCCN2CCC(C)CC2)c1O | 13.4 µM | 28 µM | 12.4 µM | 25.4 µM | 9.02 µM | 21.3 µM | 16.9 µM | 33 µM | 14.2 µM | 28.2 µM | 15.1 µM | 32 µM | 16.4 µM | 32.2 µM | 4.98 µM | 17.2 µM | 24 µM | 93.4 µM | 11.4 µM | 24.8 µM
O=C1/C=C/[C@@H](O)[C@@H]2C[C@@H](O)C[C@H]2/C=C/CCC[C@H](CCO)O1 | 0.104 µM | 0.241 µM | 0.227 µM |  | 0.0841 µM | 1.31 µM | 0.0951 µM | 0.529 µM | 0.188 µM | 0.558 µM | 0.182 µM | 0.391 µM | 0.211 µM | 0.604 µM | 0.0201 µM | 0.0423 µM | 0.314 µM | > 80.9 µM | 0.22 µM | > 100 µM
Cc1[nH]nc(C(F)(F)F)c1Cc1sc2c(c1C(=O)N1C[C@](C)(O)CO1)c(=O)n(C)c(=O)n2C(C)C | > 100 µM | > 100 µM | > 100 µM | > 100 µM | > 100 µM | > 100 µM | > 100 µM | > 100 µM | > 100 µM | > 100 µM | > 100 µM | > 100 µM | 3.26 µM | > 100 µM | > 100 µM | > 100 µM | > 100 µM | > 100 µM | > 100 µM | > 100 µM
O=C1OC(OC/C(Br)=C(\Br)COC2OC(=O)C(Cl)=C2Cl)C(Cl)=C1Cl (centres undefined) |  | 4.11 µM |  | 33.7 µM |  | 9.77 µM |  | 9.02 µM |  | 25.4 µM |  | 10.3 µM |  | 3.24 µM |  | 22.3 µM |  | 16.6 µM |  | 8.12 µM
COc1ccc(C(=O)/C=C/c2ccc(OCc3cccc(C(F)(F)F)c3)c(OC)c2)cc1OC | 61.6 µM | > 1000 µM | 131 µM | > 1000 µM | 52.1 µM | > 1000 µM | 271 µM | > 1000 µM | 27.4 µM | > 1000 µM | 51.1 µM | > 1000 µM | 39.2 µM | > 1000 µM | 38.4 µM | 301 µM | 74.4 µM | > 1000 µM | 47.3 µM | > 1000 µM
COc1nn(C)cc1Nc1nccc(-c2c[nH]c3c(NC(=O)[C@@H](C)N4CCN(C)CC4)cccc23)n1 |  |  | > 100 µM | > 100 µM | 29.4 µM | > 100 µM | 20.1 µM | 73.1 µM | 31.7 µM | > 100 µM | 34.9 µM | > 100 µM | 43.2 µM | > 100 µM | 18.5 µM | 36.5 µM | 38.3 µM | > 100 µM | 20.7 µM | > 100 µM
COc1c(C(N)=O)cc(-c2ccc(Cl)cc2)cc1-c1ccc(S(N)(=O)=O)cc1 | > 17.6 µM | > 25 µM | 11.4 µM | > 25 µM | 11 µM | > 25 µM | 12.7 µM | > 25 µM | 11.9 µM | > 25 µM | 10.3 µM | 24.2 µM | 8.11 µM | > 20.8 µM | 7.4 µM | > 25 µM | 10.5 µM | > 25 µM | 9.95 µM | > 23.5 µM
COc1cc2[nH]c3c(c2cc1OC)CCN[C@@]31CC[C@@]2(CC3c4c(cc(OC)c(O)c42)CCN3C)C[C@@H]1OC (some centres undefined) |  | 38.4 µM |  | > 83.4 µM |  | > 91.2 µM |  | 33.8 µM |  | > 100 µM |  | > 100 µM |  | 66.7 µM |  | 30.3 µM |  | > 100 µM |  | 57.8 µM
CN(C(=O)C(C)(C)C)c1ccccc1I(=O)=O | 60.7 µM | > 100 µM | > 100 µM | > 100 µM | > 100 µM | > 100 µM | 27.4 µM | > 100 µM | > 100 µM | > 100 µM | > 100 µM | > 100 µM | 16.1 µM | 30 µM | 74.1 µM | > 100 µM | > 100 µM | > 100 µM | > 100 µM | > 100 µM
C=C1C(=O)O[C@@H]2/C=C(/C)[C@@H](OC(C)=O)C[C@@H](O)/C(C)=C\[C@@H](OC(=O)[C@]3(C)O[C@@H]3C)[C@@H]12 |  | 19.4 µM |  | 34.5 µM |  | 30.7 µM |  | 11.6 µM |  | 18.1 µM |  | 29.9 µM |  | 2.81 µM |  | 24.7 µM |  | 24.7 µM |  | 
CN1C(=O)N(C)C2C1NC(=S)N2/N=C/C=C/c1ccccc1[N+](=O)[O-] (centres undefined) | 1.23 µM | 6.77 µM | 2.56 µM | > 100 µM |  |  | > 100 µM | > 100 µM | 0.409 µM | > 100 µM | 5.02 µM | > 100 µM | 0.318 µM | 9.65 µM | 0.753 µM | > 100 µM | 6.82 µM | > 100 µM | 3.86 µM | > 100 µM
CC(=O)C1=C(C)N(Cc2ccccc2)C2(O)C=CC(=O)C3=C(O)c4ccccc4C(=O)C312 (centres undefined) | 2.38 µM | 5.04 µM | 13 µM | 36.4 µM | 3.71 µM | > 100 µM | 1.44 µM | 2.97 µM | 3.8 µM | 26.2 µM | 2.1 µM | 5.97 µM | 7.3 µM | > 100 µM | 3.63 µM | 12.5 µM | 1.82 µM | 3.6 µM |  | 
Nc1nc(N)c2c(ccc3c2ccn3Cc2cccc([N+](=O)[O-])c2)n1 | 1.1 µM and 0.15 µM | 4.08 µM and 1.79 µM | 0.049 µM | 1.56 µM |  |  | 1.21 µM | 2.81 µM | 0.0565 µM and 0.0293 µM | 2.72 µM and 1.45 µM | 1.27 µM | 2.64 µM | 0.0607 µM | 1.82 µM | 0.0744 µM | 2.15 µM and 1.45 µM | 0.0615 µM | 1.65 µM | 0.043 µM | 0.806 µM
O=[N+]([O-])c1ccc2c(c1)C(N1CCN(CCO)CC1)Cc1ccc(F)cc1S2 (centres undefined) |  | 28.7 µM |  | 8.83 µM |  | 7.14 µM |  |  |  | 28.8 µM |  | 28.2 µM |  | 18.3 µM |  | 3.48 µM |  | 28.9 µM |  | 18.1 µM
